A word on the melting point: it is the temperature, or range, at which the solid turns liquid.

In the case of `Cc1nc(N)n(C)c(=O)c1CCN1CCC(Cc2nc3ccccc3n2Cc2ccc(F)cc2)CC1`, the melting point is 147 °C.
To `CC(C)(C)CNS(=O)(=O)c1cccc([N+](=O)[O-])c1` belongs 99 °C; to `N=C(N)c1ccc(C(=O)N[C@@H](CO)Cc2ccc(OCC(=O)O)cc2)cc1`, 238 to 240 °C; to `O=[N+]([O-])c1ccc(OC(c2c(Cl)cccc2Cl)C(F)(F)F)cc1` (configuration not stated), 108 °C.
The figure for `COC(=O)c1cccc(-c2nc(CCl)c(C)o2)c1` is 119 to 120 °C; for `CN(CCc1ccc([N+](=O)[O-])cc1)Cc1ccc2cc([N+](=O)[O-])ccc2n1` it is 104 to 105 °C; for `Cc1cccc(NC(=O)NCC(=O)N(CC(=O)N(C)c2ccccc2)c2ccccc2)c1` it is 168 °C.
To `O=c1oc2c(c(OCCN3CCOCC3)c1-c1ccccc1)CCCC2` belongs 115 °C; to `COc1ccc(-c2c(Cl)c(CCl)nc3sc4c(c23)CCN(C(=O)c2ccccc2)C4)cc1OC`, 208 to 209 °C; to `COC(=O)c1cc(C(C)=O)c(C(F)(F)F)cc1NC(C)=O`, 66 to 69 °C.
As to `Oc1ccccc1-n1nnc2cccnc21`, the melting point was 165 to 166 °C.
The figure for `O=C(NCCc1ccc(Cl)cc1)C1Cc2ccccc2N1S(=O)(=O)c1ccc(-c2ccc(F)cc2)cc1` (configuration not stated) is 126 °C.
Take `Ic1cnc2c(c1)NCCN2`: the melting point lay within 126 to 128 °C.
`C=C(C)C(=O)OCCNC(=O)OCCOc1ccccc1-c1ccccc1OCCOC(=O)NCCOC(=O)C(=C)C` came in with a melting point of 72 to 74 °C.
`O=C(NS(=O)(=O)NCCc1ccccc1)OCc1ccccc1` returned a melting point of 120 to 121 °C.
In turn, `O=C(O)c1cc2cccc(Cl)c2s1` yielded a melting point of 262 to 265 °C.
In turn, `Cc1cc(N=CN(C)C)nc(-c2ccc([N+](=O)[O-])o2)n1` yielded a melting point of 176 to 178 °C.
To `COc1ccc(-c2oc3ccc(F)cc3c(=O)c2OCCOc2cccc(C(C)=C3SC(=O)NC3=O)c2)cc1OC` belongs 228 to 230 °C.
Consider `COc1ccc(-n2nc(Sc3ccc(C#N)cc3)c(C)c(C#N)c2=O)cc1`, for which the melting point fell in the range of 195 to 198 °C.
`COc1cc(OC)nc(NS(=O)(=O)C(C#N)C(C)C)n1` (configuration not stated) showed a melting point of 91 to 93 °C.
In turn, `CCCc1c(OCCCCC(=O)N(CC)CC)ccc(C(C)=O)c1O` returned a melting point of 95 to 97 °C.
Molecule `CS(=O)(=O)c1ccc(-c2cnn(-c3ccoc3)c(=O)c2-c2ccc(F)cc2)cc1` yielded a melting point of 239 to 242 °C.
Turning to `CCCCOc1nc2ncnn2c2c1cnc1c2cnn1CC`, the melting point is 140 to 142 °C.
To `COCCCCCCOc1ccc(C#Cc2ccc(C(=O)O)cc2)cc1C12CC3CC(CC(C3)C1)C2` belongs 241 to 242 °C; to `CCc1cc(C(C)=O)c(OC)cc1OCc1cccc(C#N)c1`, 124 to 126 °C.
The figure for `Cc1csc(=S)n1OC(=O)c1ccccc1` is 100 to 102 °C; for `c1cc2c(cn1)OCCN2` it is 167 to 169 °C; for `CC(Oc1ncn(-c2ccc(Br)cc2)n1)C(N)=O` (configuration not stated) it is 179 to 181 °C.
In turn, `COc1cccn2c(=O)c3c(nc12)C(=Cc1ccccc1Cl)CC3` displayed a melting point of 247 to 248 °C.
The molecule `CCCCc1c(C(=O)c2ccc(OC)cc2)n(C)c2ccc([N+](=O)[O-])cc12` gave a melting point of 102 °C.
`COc1ccc(Cn2nc(-c3ccc(OC)cc3)c(-c3ccc(OC)cc3)cc2=O)cc1` registered a melting point of 171 to 172 °C.
Molecule `Cc1c(-c2ccccc2)oc2c(CO)cccc2c1=O` showed a melting point of 145 to 147 °C.
Molecule `C=C1C(=O)C2CCC1(C)C2(C)C` (configuration not stated) yielded a melting point of 69 to 75 °C.
In the case of `CC(C)(C)c1ccc(CC(=O)CCC2CCCCC2)cc1NC(=O)CC1c2ccccc2Oc2ccccc21`, the melting point was in the range of 134 to 135 °C.
Molecule `O=C(Nc1ccc2ccc(Cl)nc2n1)c1ccc2ccccc2n1` showed a melting point of 260 °C.
`Cc1nn(C)cc1C(=O)Nc1ccc(OCC(C)(C)C)c(C#N)c1` gave a melting point of 193 to 194 °C.
`COc1c(C(C)(C)C)cc(C(N)=O)cc1C(C)(C)C` displayed a melting point of 239 to 243 °C.
For the molecule `CCN(CC)C(=O)n1ccc(S(=O)(=O)c2ccc(Cl)cc2Cl)n1`, the melting point is 85 to 86 °C.
Consider `CCOC(=O)c1c(N2CCN(C(=O)c3cccs3)CC2)c2sccc2[nH]c1=O`, for which the melting point stood at 252 °C.
The figure for `CCc1c(OC)nc2nc(C#N)cn2c1C` is 166 to 168 °C.
`CCCCCc1nc(-c2ncn3c2COC(=O)c2c(Cl)cccc2-3)no1`: the melting point lay in the range of 110 to 112 °C.
The molecule `CCOC(=O)[C@H](Cc1cccc(C#N)c1)NS(=O)(=O)c1ccc2c(c1)CN(C(C)C)CC2` registered a melting point of 110 °C.
The figure for `COc1ccc(OCCCCCCO)cc1` is 63 to 64 °C.
In the case of `COc1ccc(-n2ncc(C(=O)N[C@H](C)[C@](O)(Cn3cncn3)c3ccc(F)cc3F)c2C)cc1`, the melting point fell in the range of 176 to 177 °C.
With `COC(=O)CNc1cccc(OCc2ccccc2)c1`, the melting point was 92 to 94 °C.
To `N[C@@H](Cc1ccccc1)C(=O)N1CCN(C(c2ccc(F)cc2)c2ccc(F)cc2)CC1` belongs 44 to 51 °C; to `CC(C)(C)c1ccc(-c2ccc(C(=O)N=[N+]=[N-])s2)cc1`, 162 to 164 °C.
`COc1cc(C(=O)OCCN(CCOC(=O)c2cc(OC)c(OC)c(OC)c2)CCS(=O)(=O)O)cc(OC)c1OC` had a melting point of 178 to 182 °C.
As for `OCCOc1cnccc1CCCOc1cccnc1Oc1ccccc1`, the melting point was in the range of 129 to 132 °C.
Turning to `CC1CN2N=C(c3cccc(C(F)(F)F)c3)C=CC2=N1` (configuration not stated), the melting point fell in the range of 86 to 90 °C.
Turning to `CCC(CC)(COc1ccc2ncnn2n1)CS(N)(=O)=O`, the melting point lay within 194 to 197 °C.
In turn, `O=C(Nc1cccc(S(=O)(=O)N2CCCC2)c1)c1cnn2c(C(F)F)cc(-c3ccc(Cl)cc3)nc12` registered a melting point of 227 °C.
Molecule `CCCCNC(=O)c1cnc2ccccn2c1=O` showed a melting point of 127 to 130 °C.
On to `Clc1ccc(-n2ncnc2-c2cnccn2)cc1`, for which the melting point fell in the range of 129 to 131 °C.
`CCCCCCCCCCCCCCCCOCC1OCCCC1=O` (configuration not stated): the melting point is 42 to 43.5 °C.
In the case of `N#Cc1cc(Cn2cncn2)cc(-c2ccc(OS(N)(=O)=O)c(Cl)c2)c1`, the melting point lay within 163 to 164 °C.
In turn, `CCON=C(CC)C1=C(O)CC(c2ccc3c(c2)OCC(=O)N3)CC1=O` (configuration not stated) displayed a melting point of 160 to 162 °C.
As to `CC(C(=O)O)c1ccc(-c2ccc(F)cc2Br)cc1` (configuration not stated), the melting point was 77 to 79 °C.
To `O[C@@H]1CN(C2CCCCC2)C[C@@H]1NCc1ccccc1` (relative stereo) belongs 108 to 110 °C.
Turning to `CCC(C)c1ccc2ccccc2c1C(=O)O` (configuration not stated), the melting point lay in the range of 168 to 170 °C.
To `COc1ccc(CN(CCN(C)CCCNC(=NCCCOc2cccc(CN3CCCCC3)c2)NC#N)c2ccccn2)cc1` belongs 62 to 65 °C; to `CC(C)(C)[Si](C)(C)Oc1cc(Cl)cc(C(=O)C(F)(F)F)c1N`, 45 to 46.5 °C.
In turn, `O=C1CC(c2ccc(Cl)c(Cl)c2)Cc2[nH]c3ccc(Cl)cc3c(=O)c21` (configuration not stated) showed a melting point of more than 325 °C.
In turn, `O=C(Nc1ccccc1NS(=O)(=O)c1ccc([N+](=O)[O-])cc1)c1ccc(F)cc1` had a melting point of 265 to 266 °C.
To `CC(=O)n1nc(C)c(Oc2cc(F)cc(C#N)c2)c1C` belongs 109 to 111 °C.
On to `Nc1ccc(NC(=O)[C@H](Cc2ccccc2)NC(=O)c2ccc(-c3nnn[nH]3)cc2)cc1`, for which the melting point was 137 °C.
For `COC(=O)Cn1c(=O)c(=O)[nH]c2cc([N+](=O)[O-])c(Cl)cc21`, the melting point is more than 260 °C.
For the molecule `Cc1ccc(C(F)(F)F)cc1-c1ccc(S(=O)(=O)N2c3ccccc3CC2C(=O)NCCOc2ccc(CC(=O)O)cc2)cc1` (configuration not stated), the melting point lay in the range of 80 to 84 °C.
The figure for `O=C(O)Cc1c(Cl)nc(-c2ccc([N+](=O)[O-])cc2)n1Cc1ccccc1` is 180 to 183 °C; for `Cn1cc([N+](=O)[O-])nc1CBr` it is 130 to 132 °C; for `CCOC(=O)c1nc2ccccn2c1-c1ccccc1` it is 106 °C.
In the case of `O=C(COc1ccccc1)Nc1ccccc1C(=O)O`, the melting point was 201 to 203 °C.
For the molecule `CCNC(=O)NCCC1CCCc2ccc(OC)cc21` (configuration not stated), the melting point fell in the range of 70 to 71 °C.
In turn, `CCCCCCCc1ccc(-c2ncc(C#N)c(Cl)n2)cc1` had a melting point of 76.3 to 76.8 °C.
Turning to `Nc1cc(C(=O)c2ccc(C(=O)c3ccc(F)c(N)c3)cc2)ccc1F`, the melting point fell in the range of 220 to 221 °C.
Consider `CC1CC=C(c2ccc(C(C)C(=O)O)cc2)CC1` (configuration not stated), for which the melting point is 100 to 104 °C.
For the molecule `Cc1ncc([N+](=O)[O-])n1CCN1C(=O)CCC1=O`, the melting point was 147 to 148 °C.
With `CN1CCC(NC(=O)c2cc(Cl)ccc2F)CC1`, the melting point was in the range of 143 to 145 °C.
`C=C(C)C(=O)OCCC#Cc1ccc2c(ccc3cc(OC(=O)C(=C)C)ccc32)c1`: the melting point is 91 °C.
To `CC(C)N1C(Oc2ccccc2[N+](=O)[O-])=NS(=O)(=O)N=C1Oc1ccccc1[N+](=O)[O-]` belongs 259 to 263 °C; to `O=C(Nc1ccc(C2CN(C(=O)OCc3ccccc3)C2)c(F)c1)OCc1ccccc1`, 95 °C.
Molecule `COc1ccc(OC)c(C(=O)Nc2ccc(N3CCCC3)cc2C(C)=O)c1` showed a melting point of 137 to 140 °C.
The molecule `CCOC(=O)c1c(CN(CC)CC)nc2sc3ncccc3c2c1-c1ccc(OC)c(OC)c1` showed a melting point of 156 to 157 °C.
`C/C(=N\O)c1cccc(-c2nc3sccn3c2-c2ccnc(N[C@@H]3CCCN(S(=O)(=O)c4ccc(Cl)cc4)C3)n2)c1`: the melting point was 156 to 158 °C.
`CC1(C)CC(O)CC(C)(C)N1CC(O)c1ccccc1` (configuration not stated): the melting point worked out at 123 °C.
With `Nc1nc2c(ncn2OCC(O)CP(=O)(O)O)c(=O)[nH]1` (configuration not stated), the melting point was in the range of 258 to 260 °C.
Turning to `O=C(CCC(=O)N1CCC(c2ccc(Cl)cc2)CC1)c1ccc2c(c1)CCN(C(=O)c1ccccc1)CC2`, the melting point lay within 158 to 160 °C.

The values are drawn from a melting point compilation (Tetko et al.; mined from patent text by program, amines drawn as free bases though some values may be those of a salt).
